From US10442759B2, “1-sulfonamido-4-aryloxy compounds, and preparation method and medicinal application thereof” (priority 2016, dated 2019)

What was measured:
[1] = biological target: Keap1-Nrf2 protein-protein interaction (Keap1 Kelch domain protein, FITC-9mer Nrf2 polypeptide probe) (Homo sapiens (Human), UniProt Q14145); experiment: Fluorescence polarization-based Keap1-Nrf2 protein-protein interaction inhibition experiment (FP experiment); type: binding; conditions: for IC50: FP experiment, Keap1 Kelch domain, FITC-9mer Nrf2 probe
Sequence of Keap1-Nrf2 protein-protein interaction (Keap1 Kelch domain protein, FITC-9mer Nrf2 polypeptide probe) (Q14145 321-609): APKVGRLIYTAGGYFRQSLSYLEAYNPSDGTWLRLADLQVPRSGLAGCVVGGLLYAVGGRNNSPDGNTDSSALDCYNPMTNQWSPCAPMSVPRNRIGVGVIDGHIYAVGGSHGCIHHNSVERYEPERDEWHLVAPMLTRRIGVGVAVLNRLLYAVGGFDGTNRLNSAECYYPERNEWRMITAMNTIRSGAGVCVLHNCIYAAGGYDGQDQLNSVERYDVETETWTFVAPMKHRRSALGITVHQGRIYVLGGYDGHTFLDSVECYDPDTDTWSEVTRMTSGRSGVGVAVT
Method: Fluorescence Polarization-Based Keap1-Nrf2 Protein-Protein Interaction Inhibition Experiment (FP Experiment)
The instrument used in the FP experiment was the SpectraMax Multi-Mode Microplate Reader (Molecular Devices), and the excitation and emission wavelengths of the instrument were selected based on the corresponding fluorophore.
Before the test, the system was mixed well and incubated for 30 minutes at room temperature. […] In this study, the fluorescence intensities in horizontal and vertical directions (F∥ and F^⊥) were used to calculate the millipolarization value (mP), so as to reflect the changes of the polarized light.
where Pmax, Pmin, and Pobs represent the polarization value in the well containing Keap1 and the fluorescence probe, the polarization value in the well containing the fluorescence probe, and the polarization value of the well containing the inhibitor, respectively. The IC50 of the compounds was calculated from curve of the inhibition rate against the inhibitor concentration.

ARE (HepG2-ARE-C8 cells) = experiment: ARE luciferase reporter assay; type: cell-based; conditions: for Luciferase reporter activity (fold of induction): HepG2-ARE-C8 cells, 12 hrs
Method: ARE Luciferase Reporter Assay
100 μL was added to a 96-well microtiter plate and incubated overnight.
(2) 2 times of the desired concentration of the test compound was formulated in a culture medium, and 100 μL was added respectively to the corresponding wells. tBHQ was used as a positive control and DMSO was used as a negative control. The 96-well microtiter plate added with the compound was incubated for 12 hrs at a constant temperature of 37° C., 5% CO2, and saturated humidity.
(3) The 5× lysis buffer in the Luciferase Assay Kit was formulated into a 1× lysis buffer for future use.
(4) The 96-well microtiter plate was removed, the medium was aspirated from the wells, the cells were washed with 1×PBS buffer, and the PBS buffer was aspirated off after the wash. […] After the lysis, the lysate was stood for 3-5 min, and 20 μL of the lysate supernatant was aspirated into a corresponding 96-well white plate.
(5) The 96-well white plate was positioned in the Thermo Scientific Luminoskan Ascent Chemiluminescence Micropore Reader. 100 μL of a luciferase assay reagent (obtained by uniformly mixing 1 bottle of luciferase assay substrate in the luciferase assay kit and 1 bottle of luciferase detection buffer) was added to each well before the test, and the plate was read within 1 min after the test reagent was added.

| Molecule | IC50 [1] | Luciferase reporter activity (fold of induction) (ARE (HepG2-ARE-C8 cells); 0.1 μmol/L) | Luciferase reporter activity (fold of induction) (ARE (HepG2-ARE-C8 cells); 1 μmol/L) | Luciferase reporter activity (fold of induction) (ARE (HepG2-ARE-C8 cells); 10 μmol/L) | FP activity compared with the positive control Nrf2 9mer polypeptide [1] | fold of induction compared with the positive control tBHQ (ARE (HepG2-ARE-C8 cells); 10 μM) |
| --- | --- | --- | --- | --- | --- | --- |
| 2-(4-(2,4,6-trimethyl-N-(2-(hydroxylamino)-2-oxoethylbenzenesulfonamido) naphthalen-1-oxy)-benzeneacetic acid [Compound I-13] | 980 nM | 1.07 fold of induction | 1.16 fold of induction | 1.21 fold of induction |  |  |
| 2-(4-(2,4,6-trimethylbenzenesulfonamido)naphthalen-1-oxy)benzeneacetic acid [Compound I-11] | 2430 nM | 1.02 fold of induction | 1.34 fold of induction | 1.14 fold of induction |  |  |
| 2-(4-(2,4,6-trimethylbenzenesulfonamido)naphthalen-1-yl)oxy)-2-benzeneacetic acid [Compound I-2] | 1320 nM | 1.21 fold of induction | 1.10 fold of induction | 1.05 fold of induction |  |  |
| 3-(4-((N-carboxymethyl)-2,4,6-trimethylbenzenesulfonamido)naphthalen-1-yloxy)-(4-methoxyphenyl)propionic acid [Compound I-20] | 830 nM | 1.02 fold of induction | 1.13 fold of induction | 1.28 fold of induction |  |  |
| COc1ccc(S(=O)(=O)N(CC(=O)O)c2ccc(Oc3ccccc3CC(=O)O)c3ccccc23)cc1 [Compound I-1] | 2280 nM | 0.98 fold of induction | 1.10 fold of induction | 1.07 fold of induction |  |  |
| Cc1cc(C)c(S(=O)(=O)N(CC(=O)O)c2ccc(Oc3ccccc3CC(=O)O)c3ccccc23)c(C)c1 [Compound I-3] | 580 nM | 0.95 fold of induction | 1.03 fold of induction | 1.31 fold of induction |  |  |
| CC(C)(C)c1ccc(S(=O)(=O)N(CC(=O)O)c2ccc(OC(C(=O)O)c3ccccc3)c3ccccc23)cc1 (stereo not shown) [Compound I-4] | 980 nM | 1.04 fold of induction | 1.12 fold of induction | 1.13 fold of induction |  |  |
| COc1ccc(S(=O)(=O)N(CC(=O)O)c2ccc(Oc3ccccc3CC(=O)O)c3ccccc23)cc1OC [Compound I-5] | 2300 nM | 0.92 fold of induction | 1.05 fold of induction | 1.10 fold of induction |  |  |
| COc1cc(OC)c(S(=O)(=O)N(CC(=O)O)c2ccc(OC(C(=O)O)c3ccccc3)c3ccccc23)c(OC)c1 (stereo not shown) [Compound I-6] | 640 nM | 1.01 fold of induction | 1.26 fold of induction | 1.09 fold of induction |  |  |
| CC(=O)Nc1ccc(S(=O)(=O)N(CC(=O)O)c2ccc(Oc3ccccc3CC(=O)O)c3ccccc23)cc1 [Compound I-7] | 5230 nM | 0.97 fold of induction | 1.01 fold of induction | 1.03 fold of induction |  |  |
| O=C(O)CN(c1ccc(OC(C(=O)O)c2ccccc2)c2ccccc12)S(=O)(=O)c1ccc([N+](=O)[O-])cc1 (stereo not shown) [Compound I-8, 2-(4-(N-(carboxymethyl)-4-nitrobenzenesulfonamido))naphthalen-1-oxy) benzeneacetate] | 4790 nM | 1.05 fold of induction | 1.23 fold of induction | 1.14 fold of induction |  |  |
| O=C(O)CN(c1ccc(OC(C(=O)O)c2ccccc2)c2ccccc12)S(=O)(=O)c1ccc(F)cc1 (stereo not shown) [Compound I-9] | 5160 nM | 1.02 fold of induction | 1.13 fold of induction | 1.08 fold of induction |  |  |
| O=C(O)Cc1ccccc1Oc1ccc(N(CC(=O)O)S(=O)(=O)c2ccc(C(F)(F)F)cc2)c2ccccc12 [Compound I-10] | 6660 nM | 0.92 fold of induction | 0.95 fold of induction | 1.10 fold of induction |  |  |
| Cc1cc(C)c(S(=O)(=O)N(Cc2nn[nH]n2)c2ccc(Oc3ccccc3CC(=O)O)c3ccccc23)c(C)c1 [Compound I-12, 2-(4-((N-(2H-tetrazol-5-yl)methyl)-2,4,6-trimethylbenzenesulfonamido)naphthalen-1-oxy)benzeneacetic acid] | 830 nM | 1.05 fold of induction | 1.19 fold of induction | 1.36 fold of induction |  |  |
| CCOc1ccc(C(Oc2ccc(N(CC(=O)O)S(=O)(=O)c3c(C)cc(C)cc3C)c3ccccc23)C(=O)O)cc1 (stereo not shown) [Compound I-15] | 84 nM | 1.33 fold of induction | 2.05 fold of induction | 3.92 fold of induction | better than the positive control | significantly higher than that of the positive control tBHQ |
| CC(=O)Nc1ccc(C(Oc2ccc(N(CC(=O)O)S(=O)(=O)c3c(C)cc(C)cc3C)c3ccccc23)C(=O)O)cc1 (stereo not shown) [Compound I-16] | 90 nM | 1.21 fold of induction | 1.98 fold of induction | 3.23 fold of induction | better than the positive control |  |
| COc1cc(OC)c(S(=O)(=O)N(CC(=O)O)c2ccc(OC(C(=O)O)c3ccc(OC(C)C)cc3)c3ccccc23)c(OC)c1 (stereo not shown) [Compound I-17] | 320 nM | 1.39 fold of induction | 1.39 fold of induction | 2.07 fold of induction |  |  |
| COc1cc(OC)c(S(=O)(=O)N(CC(=O)O)c2ccc(OC(C(=O)O)c3ccc(F)cc3)c3ccccc23)c(OC)c1 (stereo not shown) [Compound I-18] | 310 nM | 1.03 fold of induction | 1.42 fold of induction | 1.57 fold of induction |  |  |
| COc1ccc(C(Oc2ccc(N(Cc3nn[nH]n3)S(=O)(=O)c3c(C)cc(C)cc3C)c3ccccc23)C(=O)O)cc1 (stereo not shown) [Compound I-19, 2-(4-((N-(2H-tetrazol-5-yl)methyl)-2,4,6-trimethylbenzenesulfonamido)naphthalen-1-oxy)-(4-methoxyphenyl)acetic acid] | 140 nM | 0.97 fold of induction | 1.43 fold of induction | 2.58 fold of induction |  |  |
| CC(C)(C)c1cc(O)ccc1O [tBHQ, t-butylhydroquinone, reference compound] |  | 1.46 fold of induction | 1.38 fold of induction | 3.61 fold of induction |  |  |
